Measurements: ChEMBL document CHEMBL4152326 (2018)

Each compound was assayed on Pseudomonas aeruginosa (assay: Antimicrobial activity against Pseudomonas aeruginosa SR24 in presence of human apo-transferrin by broth microdilution method).
Format: functional

Structure (SMILES) | MIC
Nc1nc(/C(=N/OCC(=O)O)C(=O)N[C@@H]2C(=O)N3C(C(=O)[O-])=C(C[N+]4(CCNC(=O)c5ccc(O)c(O)c5Cl)CCCC4)CS[C@H]23)cs1 | 0.125 µg/mL
CC(C)(O/N=C(\C(=O)N[C@@H]1C(=O)N2C(C(=O)[O-])=C(C[N+]3(CCNC(=O)c4cc(O)c(O)c(Cl)c4)CCCC3)CS[C@H]12)c1csc(N)n1)C(=O)O | 0.063 µg/mL
CC(C)(O/N=C(\C(=O)N[C@@H]1C(=O)N2C(C(=O)[O-])=C(C[N+](C)(C)CCNC(=O)c3ccc(O)c(O)c3Cl)CS[C@H]12)c1csc(N)n1)C(=O)O | 0.063 µg/mL

Each compound was assayed on Pseudomonas aeruginosa (assay: Antimicrobial activity against AmpC overproducing Pseudomonas aeruginosa SR24-12 in presence of human apo-transferrin by broth microdilution method).
Format: functional

Structure (SMILES) | MIC
Nc1nc(/C(=N/OCC(=O)O)C(=O)N[C@@H]2C(=O)N3C(C(=O)[O-])=C(C[N+]4(CCNC(=O)c5ccc(O)c(O)c5Cl)CCCC4)CS[C@H]23)cs1 | 0.5 µg/mL
CC(C)(O/N=C(\C(=O)N[C@@H]1C(=O)N2C(C(=O)[O-])=C(C[N+]3(CCNC(=O)c4cc(O)c(O)c(Cl)c4)CCCC3)CS[C@H]12)c1csc(N)n1)C(=O)O | 0.125 µg/mL
CC(C)(O/N=C(\C(=O)N[C@@H]1C(=O)N2C(C(=O)[O-])=C(C[N+](C)(C)CCNC(=O)c3ccc(O)c(O)c3Cl)CS[C@H]12)c1csc(N)n1)C(=O)O | 4 µg/mL

Each compound was assayed on Pseudomonas aeruginosa (assay: Antimicrobial activity against IMP-1 producing Pseudomonas aeruginosa SR27001 in presence of human apo-transferrin by broth microdilution method).
Format: functional

Structure (SMILES) | MIC
Nc1nc(/C(=N/OCC(=O)O)C(=O)N[C@@H]2C(=O)N3C(C(=O)[O-])=C(C[N+]4(CCNC(=O)c5ccc(O)c(O)c5Cl)CCCC4)CS[C@H]23)cs1 | 2 µg/mL
CC(C)(O/N=C(\C(=O)N[C@@H]1C(=O)N2C(C(=O)[O-])=C(C[N+]3(CCNC(=O)c4cc(O)c(O)c(Cl)c4)CCCC3)CS[C@H]12)c1csc(N)n1)C(=O)O | 1 µg/mL
CC(C)(O/N=C(\C(=O)N[C@@H]1C(=O)N2C(C(=O)[O-])=C(C[N+](C)(C)CCNC(=O)c3ccc(O)c(O)c3Cl)CS[C@H]12)c1csc(N)n1)C(=O)O | > 32 µg/mL

What follows are compounds tested on Pseudomonas aeruginosa (assay: Antimicrobial activity against VIM-2 producing Pseudomonas aeruginosa SBRKM-28 in presence of human apo-transferrin by broth microdilution method).
Format: functional

Structure (SMILES) | MIC
Nc1nc(/C(=N/OCC(=O)O)C(=O)N[C@@H]2C(=O)N3C(C(=O)[O-])=C(C[N+]4(CCNC(=O)c5ccc(O)c(O)c5Cl)CCCC4)CS[C@H]23)cs1 | 0.125 µg/mL
CC(C)(O/N=C(\C(=O)N[C@@H]1C(=O)N2C(C(=O)[O-])=C(C[N+](C)(C)CCNC(=O)c3ccc(O)c(O)c3Cl)CS[C@H]12)c1csc(N)n1)C(=O)O | 0.25 µg/mL

What follows are compounds tested on Pseudomonas aeruginosa (assay: Antimicrobial activity against IMP-1 producing Pseudomonas aeruginosa SR27060 in presence of human apo-transferrin by broth microdilution method).
Format: functional

Structure (SMILES) | MIC
Nc1nc(/C(=N/OCC(=O)O)C(=O)N[C@@H]2C(=O)N3C(C(=O)[O-])=C(C[N+]4(CCNC(=O)c5ccc(O)c(O)c5Cl)CCCC4)CS[C@H]23)cs1 | 4 µg/mL
CC(C)(O/N=C(\C(=O)N[C@@H]1C(=O)N2C(C(=O)[O-])=C(C[N+]3(CCNC(=O)c4cc(O)c(O)c(Cl)c4)CCCC3)CS[C@H]12)c1csc(N)n1)C(=O)O | 1 µg/mL
CC(C)(O/N=C(\C(=O)N[C@@H]1C(=O)N2C(C(=O)[O-])=C(C[N+](C)(C)CCNC(=O)c3ccc(O)c(O)c3Cl)CS[C@H]12)c1csc(N)n1)C(=O)O | 32 µg/mL

These compounds were tested on Pseudomonas aeruginosa (assay: Antimicrobial activity against Pseudomonas aeruginosa 27060deltaR1 harboring deletion of R1 plasmid in presence of human apo-transferrin by broth microdilution method).
Format: functional

Structure (SMILES) | MIC
Nc1nc(/C(=N/OCC(=O)O)C(=O)N[C@@H]2C(=O)N3C(C(=O)[O-])=C(C[N+]4(CCNC(=O)c5ccc(O)c(O)c5Cl)CCCC4)CS[C@H]23)cs1 | 2 µg/mL
CC(C)(O/N=C(\C(=O)N[C@@H]1C(=O)N2C(C(=O)[O-])=C(C[N+]3(CCNC(=O)c4cc(O)c(O)c(Cl)c4)CCCC3)CS[C@H]12)c1csc(N)n1)C(=O)O | 0.25 µg/mL
CC(C)(O/N=C(\C(=O)N[C@@H]1C(=O)N2C(C(=O)[O-])=C(C[N+](C)(C)CCNC(=O)c3ccc(O)c(O)c3Cl)CS[C@H]12)c1csc(N)n1)C(=O)O | 2 µg/mL

These compounds were tested on Stenotrophomonas maltophilia (assay: Antimicrobial activity against L-1 producing Stenotrophomonas maltophilia SR21970 in presence of human apo-transferrin by broth microdilution method).
Format: functional

Structure (SMILES) | MIC
Nc1nc(/C(=N/OCC(=O)O)C(=O)N[C@@H]2C(=O)N3C(C(=O)[O-])=C(C[N+]4(CCNC(=O)c5ccc(O)c(O)c5Cl)CCCC4)CS[C@H]23)cs1 | 1 µg/mL
CC(C)(O/N=C(\C(=O)N[C@@H]1C(=O)N2C(C(=O)[O-])=C(C[N+]3(CCNC(=O)c4cc(O)c(O)c(Cl)c4)CCCC3)CS[C@H]12)c1csc(N)n1)C(=O)O | 0.25 µg/mL
CC(C)(O/N=C(\C(=O)N[C@@H]1C(=O)N2C(C(=O)[O-])=C(C[N+](C)(C)CCNC(=O)c3ccc(O)c(O)c3Cl)CS[C@H]12)c1csc(N)n1)C(=O)O | > 32 µg/mL

These compounds were tested on Acinetobacter baumannii (assay: Antimicrobial activity against OXA-23/OXA-58 producing Acinetobacter baumannii SR27323 in presence of human apo-transferrin by broth microdilution method).
Format: functional

Structure (SMILES) | MIC
Nc1nc(/C(=N/OCC(=O)O)C(=O)N[C@@H]2C(=O)N3C(C(=O)[O-])=C(C[N+]4(CCNC(=O)c5ccc(O)c(O)c5Cl)CCCC4)CS[C@H]23)cs1 | 0.5 µg/mL
CC(C)(O/N=C(\C(=O)N[C@@H]1C(=O)N2C(C(=O)[O-])=C(C[N+]3(CCNC(=O)c4cc(O)c(O)c(Cl)c4)CCCC3)CS[C@H]12)c1csc(N)n1)C(=O)O | 0.25 µg/mL
CC(C)(O/N=C(\C(=O)N[C@@H]1C(=O)N2C(C(=O)[O-])=C(C[N+](C)(C)CCNC(=O)c3ccc(O)c(O)c3Cl)CS[C@H]12)c1csc(N)n1)C(=O)O | 0.5 µg/mL

What follows are compounds tested on Klebsiella pneumoniae (assay: Antimicrobial activity against KPC-2 producing Klebsiella pneumoniae ATCC BAA-1705 in presence of human apo-transferrin by broth microdilution method).
Format: functional

Structure (SMILES) | MIC
Nc1nc(/C(=N/OCC(=O)O)C(=O)N[C@@H]2C(=O)N3C(C(=O)[O-])=C(C[N+]4(CCNC(=O)c5ccc(O)c(O)c5Cl)CCCC4)CS[C@H]23)cs1 | 0.25 µg/mL
CC(C)(O/N=C(\C(=O)N[C@@H]1C(=O)N2C(C(=O)[O-])=C(C[N+]3(CCNC(=O)c4cc(O)c(O)c(Cl)c4)CCCC3)CS[C@H]12)c1csc(N)n1)C(=O)O | ≤ 0.031 µg/mL
CC(C)(O/N=C(\C(=O)N[C@@H]1C(=O)N2C(C(=O)[O-])=C(C[N+](C)(C)CCNC(=O)c3ccc(O)c(O)c3Cl)CS[C@H]12)c1csc(N)n1)C(=O)O | 0.5 µg/mL

The compounds below were run on Escherichia coli (assay: Antimicrobial activity against SHV-4 producing Escherichia coli ATCC BAA-200 in presence of human apo-transferrin by broth microdilution method).
Format: functional

Structure (SMILES) | MIC
Nc1nc(/C(=N/OCC(=O)O)C(=O)N[C@@H]2C(=O)N3C(C(=O)[O-])=C(C[N+]4(CCNC(=O)c5ccc(O)c(O)c5Cl)CCCC4)CS[C@H]23)cs1 | 32 µg/mL
CC(C)(O/N=C(\C(=O)N[C@@H]1C(=O)N2C(C(=O)[O-])=C(C[N+]3(CCNC(=O)c4cc(O)c(O)c(Cl)c4)CCCC3)CS[C@H]12)c1csc(N)n1)C(=O)O | 0.5 µg/mL
CC(C)(O/N=C(\C(=O)N[C@@H]1C(=O)N2C(C(=O)[O-])=C(C[N+](C)(C)CCNC(=O)c3ccc(O)c(O)c3Cl)CS[C@H]12)c1csc(N)n1)C(=O)O | > 32 µg/mL

Each compound was assayed on Pseudomonas aeruginosa (assay: Antibacterial activity against Pseudomonas aeruginosa SR27001 infected in Jcl:ICR mouse systemic infection model assessed as increase in mouse survival rate administered iv 1 to 5 hrs post infection measured over 7 days).
Format: functional

Structure (SMILES) | ED50
Nc1nc(/C(=N/OCC(=O)O)C(=O)N[C@@H]2C(=O)N3C(C(=O)[O-])=C(C[N+]4(CCNC(=O)c5ccc(O)c(O)c5Cl)CCCC4)CS[C@H]23)cs1 | 9.84 mg/kg
CC(C)(O/N=C(\C(=O)N[C@@H]1C(=O)N2C(C(=O)[O-])=C(C[N+]3(CCNC(=O)c4cc(O)c(O)c(Cl)c4)CCCC3)CS[C@H]12)c1csc(N)n1)C(=O)O | 10.2 mg/kg
